The source of these data is the C3SDB collision cross section collection.

For data set [1] the following is noted: instrument: DT, stepped-field.
The conditions of data set [2]: instrument: DT, single field, calibrated with Agilent tune mix (Agilent).
For data set [3] the following is noted: instrument: DT, stepped-field. The source holds these as a separate data set.
The conditions of data set [4]: instrument: TW, calibrated with polyalanine.

Each structure is given as a SMILES string.

On to `CC[C@H](C)[C@H](NC(=O)[C@H](Cc1ccc(O)cc1)NC(=O)[C@@H](NC(=O)[C@H](CCCN=C(N)N)NC(=O)[C@@H](N)CC(=O)O)C(C)C)C(=O)N[C@@H](Cc1cnc[nH]1)C(=O)N1CCC[C@H]1C(=O)N[C@@H](Cc1ccccc1)C(=O)O` [Angiotensin II], for which the “collision cross section (N2)” value in data set [1] ([M+2H]2+) came to 353.79 Å²; in data set [1] ([M+3H]3+), 436.24 Å²; in data set [1] ([M+H]+), 314.38 Å².
For `C[N+](C)(C)CCO` [Choline], the “collision cross section (N2)” value in data set [2] ([M+H]+) is given as 117.8 Å²; in data set [3] ([M]+) it was 119 Å²; in data set [4] ([M]+) it was 117 Å².
For `CCCCC/C=C\C/C=C\C/C=C\CCCCCCC(=O)O` [Dihomo-gamma-Linolenic Acid], the “collision cross section (N2)” value in data set [1] ([M-H]-) came to 183.02 Å².
As for `OCC1(O)OC[C@@H](O)[C@@H](O)[C@@H]1O` (some centres not stated) [Fructose], in data set [4] ([M+Na]+), the “collision cross section (N2)” value turned out to be 135 Å².
With `Nc1nc(=O)c2ncn([C@@H]3O[C@H](COP(=O)(O)O)[C@@H](O)[C@H]3O)c2[nH]1` [GMP], the “collision cross section (N2)” value in data set [4] ([M+H]+) is recorded as 176 Å².
Take `OC[C@H]1OC(O)[C@H](O)[C@@H](O)[C@H]1O` (some centres not stated) [Galactose]: the “collision cross section (N2)” value in data set [4] ([M+Na]+) was found to be 136 Å².
`N[C@@H]1[C@@H](O)[C@H](O)[C@@H](COP(=O)(O)O)O[C@@H]1O` [Glucosamine 6-phosphate]: the “collision cross section (N2)” value in data set [4] ([M+H]+) amounted to 150 Å².
Take `OC[C@H]1OC(O)[C@H](O)[C@@H](O)[C@@H]1O` (some centres not stated) [Glucose]: the “collision cross section (N2)” value in data set [4] ([M+Na]+) is given as 138 Å².
Take `O=C(O)[C@H]1OC(O)[C@H](O)[C@@H](O)[C@@H]1O` (some centres not stated) [Glucuronic acid]: the “collision cross section (N2)” value in data set [4] ([M+Na]+) was determined as 140 Å².
For the compound `Nc1nc(=O)c2[nH]cnc2[nH]1` [Guanine], the “collision cross section (N2)” value was determined as 133.55 Å² in data set [3] ([M+H]+) and 124 Å² in data set [4] ([M+H]+).
Take `CC[C@H](C)[C@H](N)C(=O)O` [Isoleucine]: the “collision cross section (N2)” value in data set [4] ([M+H]+) was found to be 129 Å².
In the case of `NC(N)=NCCC[C@H](N)C(=O)O` [L-Arginine], the “collision cross section (N2)” value in data set [1] ([M+H]+) is recorded as 136.84 Å²; in data set [1] ([M-H]-) it was 138.03 Å²; in data set [2] ([M+H]+), 136.4 Å²; in data set [3] ([M+Na]+), 147.8 Å².
As for `CC[C@H](C)[C@H](N)C(=O)O` [L-Isoleucine], the “collision cross section (N2)” value in data set [1] ([M+H]+) was 133.81 Å²; in data set [1] ([M-H]-), 131.29 Å²; in data set [3] ([M+H]+) it was 136.97 Å².
For the compound `CSCC[C@H](N)C(=O)O` [L-Methionine], the “collision cross section (N2)” value turned out to be 134.08 Å² in data set [1] ([M+H]+) and 133.65 Å² in data set [3] ([M+H]+).
On to `N[C@@H](Cc1ccccc1)C(=O)O` [L-Phenylalanine], for which the “collision cross section (N2)” value in data set [1] ([M+H]+) turned out to be 141.28 Å²; in data set [1] ([M-H]-), 141.29 Å²; in data set [2] ([M+H]+) it was 140.3 Å²; in data set [3] ([M+Na]+), 138.91 Å².
The corresponding values for `N[C@@H](Cc1ccc(O)cc1)C(=O)O` [L-Tyrosine] are 146.45 Å², 145.59 Å², 145.7 Å² and 143.97 Å².
Consider `CCCCCCCCCCCCCCCCC(=O)O` [Margaric acid], for which the “collision cross section (N2)” value in data set [1] ([M-H]-) was 173.41 Å².
Turning to `CSCC[C@H](N)C(=O)O` [Methionine], the “collision cross section (N2)” value in data set [4] ([M+H]+) came out at 127 Å².
Still for that read-out and setting: for `O=C(O)c1cccnc1` [Nicotinic acid] the value was 115 Å².
Regarding `CCCCCCCC/C=C\CCCCCCCC(=O)O` [Oleic acid], the “collision cross section (N2)” value came out at 176.46 Å² in data set [1] ([M-H]-) and 173.88 Å² in data set [2] ([M-H]-).
In the case of `CCCCCCCCCCCCCCC(=O)O` [Pentadecanoic acid], in data set [1] ([M-H]-), the “collision cross section (N2)” value was determined as 165.34 Å².
As for `N[C@@H](Cc1ccccc1)C(=O)O` [Phenylalanine], the “collision cross section (N2)” value in data set [4] ([M+H]+) is listed as 135 Å².
As for `Cc1ncc(CO)c(CN)c1O` [Pyridoxamine], the “collision cross section (N2)” value turned out to be 134 Å² in data set [2] ([M+H]+), 135.79 Å² in data set [3] ([M+H]+), 148.49 Å² in data set [3] ([M+Na]+) and 130 Å² in data set [4] ([M+H]+).
As to `Nc1ncnc2c1ncn2[C@@H]1O[C@H](CSCC[C@H](N)C(=O)O)[C@@H](O)[C@H]1O` [SAH], the “collision cross section (N2)” value in data set [4] ([M+H]+) turned out to be 179 Å².
For `C[S+](CC[C@H](N)C(=O)[O-])C[C@H]1O[C@@H](n2cnc3c(N)ncnc32)[C@H](O)[C@@H]1O` (some centres not stated) [SAMe], the “collision cross section (N2)” value in data set [4] ([M]+) was determined as 184 Å².
In the case of `CCCCCCCCCCCCCCCCCC(=O)O` [Stearic acid], the “collision cross section (N2)” value stood at 177.66 Å² in data set [1] ([M-H]-) and 174.42 Å² in data set [2] ([M-H]-).
`N[C@@H](Cc1ccc(O)cc1)C(=O)O` [Tyrosine]: the “collision cross section (N2)” value in data set [4] ([M+H]+) amounted to 139 Å².
Regarding `O=c1ccn([C@@H]2O[C@H](COP(=O)(O)OP(=O)(O)O)[C@@H](O)[C@H]2O)c(=O)[nH]1` [UDP], in data set [4] ([M+H]+), the “collision cross section (N2)” value was 174 Å².
Regarding `O=c1cc[nH]c(=O)[nH]1` [Uracil], the “collision cross section (N2)” value in data set [2] ([M+H]+) is on record as 118.5 Å²; in data set [3] ([M+H]+), 126.98 Å²; in data set [4] ([M+H]+) it was 115 Å².
For `OC[C@H]1OC(O)[C@H](O)[C@@H](O)[C@@H]1O` (stereo partly drawn) [a-D-Glucose], the “collision cross section (N2)” value in data set [1] ([M+Na]+) was determined as 147.35 Å².
`CCCCC/C=C\C/C=C\CCCCCCCCCC(=O)O` [cis-11,14-Eicosadienoic acid]: in data set [1] ([M-H]-), the “collision cross section (N2)” value came to 183.32 Å².
In the case of `CCCCCCCC/C=C\CCCCCCCCCC(=O)O` [cis-Gondoic acid], the “collision cross section (N2)” value in data set [1] ([M-H]-) was determined as 184.29 Å².
`Cc1cn([C@H]2C[C@H](O)[C@@H](COP(=O)(O)O)O2)c(=O)[nH]c1=O` [dTMP]: the “collision cross section (N2)” value in data set [4] ([M+Na]+) is recorded as 170 Å².
